Tested on: plants
Test: Test D post-emergence, other plants of Tables D2 and D4
Assay type: in vivo
Conditions: for damage to plant (100=total damage to plant; 0=no damage to plant), ABUTH / damage to plant (100=total damage to plant; 0=no damage to plant), AMARE / damage to plant (100=total damage to plant; 0=no damage to plant), BIDPI / damage to plant (100=total damage to plant; 0=no damage to plant), BRAPL / damage to plant (100=total damage to plant; 0=no damage to plant), CYPES / damage to plant (100=total damage to plant; 0=no damage to plant), DIGSA / damage to plant (100=total damage to plant; 0=no damage to plant), ECHCG / damage to plant (100=total damage to plant; 0=no damage to plant), ELEIN / damage to plant (100=total damage to plant; 0=no damage to plant), EPHHL / damage to plant (100=total damage to plant; 0=no damage to plant), GLXMA / damage to plant (100=total damage to plant; 0=no damage to plant), IPOHE / damage to plant (100=total damage to plant; 0=no damage to plant), ORYSA / damage to plant (100=total damage to plant; 0=no damage to plant), PANMI / damage to plant (100=total damage to plant; 0=no damage to plant), SETFA / damage to plant (100=total damage to plant; 0=no damage to plant), SORVU: post-emergence
Description: A formulation containing 50 g/L of the test chemical was prepared by dissolving the active ingredient in a mixture of organic solvents and emulsifier, details of which are provided in the table. This formulation was then mixed with a small, variable amount of acetone to aid dissolution, before addition of a 0.2% v/v aqueous solution of an adjuvant, as the aqueous diluent, to form an aqueous spray solution which contains a predetermined concentration of the active ingredient.
This aqueous spray solution was then sprayed onto plants including maize and wheat that had been seed treated with a herbicide safener, after one day's cultivation (for pre-emergence) or after about 12 days' cultivation (for post-emergence). The plants were grown from seeds sown in standard soil, placed in a glasshouse under controlled conditions (at 24/18° C. or 20/16° C., day/night; 16 h light; 65% humidity). After spray application the plants were then grown in a glasshouse under the same conditions and watered twice daily. After 15 d for post-emergence and 20 DAA for pre-emergence the test was evaluated (100=total damage to plant; 0=no damage to plant).

[1] = "Cereals" Postemergent, Rates 130, evaluated after 15 d
[2] = "Cereals" Postemergent, Rates 250, evaluated after 15 d
[3] = "Cereals" Postemergent, Rates 500, evaluated after 15 d

CN1CC(c2cc(C(F)(F)F)n(C)n2)C(C(=O)Nc2ccc(F)cc2F)C1=O (racemic) [Compound 6]
ALOMY damage rating (100=total damage to plant; 0=no damage to plant) [1]: 0 | ALOMY damage rating (100=total damage to plant; 0=no damage to plant) [2]: 0 | ALOMY damage rating (100=total damage to plant; 0=no damage to plant) [3]: 0 | AVEFA damage rating (100=total damage to plant; 0=no damage to plant) [1]: 0 | AVEFA damage rating (100=total damage to plant; 0=no damage to plant) [2]: 0 | AVEFA damage rating (100=total damage to plant; 0=no damage to plant) [3]: 10 | BEAVA damage rating (100=total damage to plant; 0=no damage to plant) [1]: 0 | BEAVA damage rating (100=total damage to plant; 0=no damage to plant) [2]: 0 | BEAVA damage rating (100=total damage to plant; 0=no damage to plant) [3]: 0 | BROTE damage rating (100=total damage to plant; 0=no damage to plant) [1]: 0 | BROTE damage rating (100=total damage to plant; 0=no damage to plant) [2]: 0 | BROTE damage rating (100=total damage to plant; 0=no damage to plant) [3]: 10 | BRSNN damage rating (100=total damage to plant; 0=no damage to plant) [1]: 0 | BRSNN damage rating (100=total damage to plant; 0=no damage to plant) [2]: 0 | BRSNN damage rating (100=total damage to plant; 0=no damage to plant) [3]: 10 | CHEAL damage rating (100=total damage to plant; 0=no damage to plant) [1]: 0 | CHEAL damage rating (100=total damage to plant; 0=no damage to plant) [2]: 0 | CHEAL damage rating (100=total damage to plant; 0=no damage to plant) [3]: 0 | GALAP damage rating (100=total damage to plant; 0=no damage to plant) [1]: 0 | GALAP damage rating (100=total damage to plant; 0=no damage to plant) [2]: 10 | GALAP damage rating (100=total damage to plant; 0=no damage to plant) [3]: 20 | HORVW damage rating (100=total damage to plant; 0=no damage to plant) [1]: 0 | HORVW damage rating (100=total damage to plant; 0=no damage to plant) [2]: 10 | HORVW damage rating (100=total damage to plant; 0=no damage to plant) [3]: 30 | KCHSC damage rating (100=total damage to plant; 0=no damage to plant) [1]: 0 | KCHSC damage rating (100=total damage to plant; 0=no damage to plant) [2]: 0 | KCHSC damage rating (100=total damage to plant; 0=no damage to plant) [3]: 10 | LOLPE damage rating (100=total damage to plant; 0=no damage to plant) [1]: 0 | LOLPE damage rating (100=total damage to plant; 0=no damage to plant) [2]: 0 | LOLPE damage rating (100=total damage to plant; 0=no damage to plant) [3]: 0 | POAAN damage rating (100=total damage to plant; 0=no damage to plant) [1]: 0 | POAAN damage rating (100=total damage to plant; 0=no damage to plant) [2]: 0 | POAAN damage rating (100=total damage to plant; 0=no damage to plant) [3]: 10 | POLCO damage rating (100=total damage to plant; 0=no damage to plant) [1]: 0 | POLCO damage rating (100=total damage to plant; 0=no damage to plant) [2]: 0 | POLCO damage rating (100=total damage to plant; 0=no damage to plant) [3]: 0 | SINAR damage rating (100=total damage to plant; 0=no damage to plant) (SINAR, "Cereals" Postemergent, Rates 500, evaluated after 15 d): 40 | STEME damage rating (100=total damage to plant; 0=no damage to plant) [1]: 0 | STEME damage rating (100=total damage to plant; 0=no damage to plant) [2]: 0 | STEME damage rating (100=total damage to plant; 0=no damage to plant) [3]: 10 | VERPE damage rating (100=total damage to plant; 0=no damage to plant) [1]: 0 | VERPE damage rating (100=total damage to plant; 0=no damage to plant) [2]: 10 | VERPE damage rating (100=total damage to plant; 0=no damage to plant) [3]: 20 | damage to plant (100=total damage to plant; 0=no damage to plant), ABUTH (rate 130, evaluated after 15 d): 0 | damage to plant (100=total damage to plant; 0=no damage to plant), ABUTH (rate 250, evaluated after 15 d): 10 | damage to plant (100=total damage to plant; 0=no damage to plant), ABUTH (rate 500, evaluated after 15 d): 20 | damage to plant (100=total damage to plant; 0=no damage to plant), AMARE (rate 130, evaluated after 15 d): 0 | damage to plant (100=total damage to plant; 0=no damage to plant), AMARE (rate 500, evaluated after 15 d): 20 | damage to plant (100=total damage to plant; 0=no damage to plant), BIDPI (rate 130, evaluated after 15 d): 0 | damage to plant (100=total damage to plant; 0=no damage to plant), BIDPI (rate 250, evaluated after 15 d): 0 | damage to plant (100=total damage to plant; 0=no damage to plant), BIDPI (rate 500, evaluated after 15 d): 0 | damage to plant (100=total damage to plant; 0=no damage to plant), BRAPL (rate 130, evaluated after 15 d): 50 | damage to plant (100=total damage to plant; 0=no damage to plant), BRAPL (rate 250, evaluated after 15 d): 60 | damage to plant (100=total damage to plant; 0=no damage to plant), BRAPL (rate 500, evaluated after 15 d): 70 | damage to plant (100=total damage to plant; 0=no damage to plant), CYPES (rate 130, evaluated after 15 d): 0 | damage to plant (100=total damage to plant; 0=no damage to plant), CYPES (rate 250, evaluated after 15 d): 0 | damage to plant (100=total damage to plant; 0=no damage to plant), CYPES (rate 500, evaluated after 15 d): 0 | damage to plant (100=total damage to plant; 0=no damage to plant), DIGSA (rate 130, evaluated after 15 d): 0 | damage to plant (100=total damage to plant; 0=no damage to plant), DIGSA (rate 250, evaluated after 15 d): 60 | damage to plant (100=total damage to plant; 0=no damage to plant), DIGSA (rate 500, evaluated after 15 d): 70 | damage to plant (100=total damage to plant; 0=no damage to plant), ECHCG (rate 130, evaluated after 15 d): 0 | damage to plant (100=total damage to plant; 0=no damage to plant), ECHCG (rate 250, evaluated after 15 d): 50 | damage to plant (100=total damage to plant; 0=no damage to plant), ECHCG (rate 500, evaluated after 15 d): 70 | damage to plant (100=total damage to plant; 0=no damage to plant), ELEIN (rate 130, evaluated after 15 d): 0 | damage to plant (100=total damage to plant; 0=no damage to plant), ELEIN (rate 250, evaluated after 15 d): 0 | damage to plant (100=total damage to plant; 0=no damage to plant), ELEIN (rate 500, evaluated after 15 d): 0 | damage to plant (100=total damage to plant; 0=no damage to plant), EPHHL (rate 130, evaluated after 15 d): 10 | damage to plant (100=total damage to plant; 0=no damage to plant), EPHHL (rate 250, evaluated after 15 d): 20 | damage to plant (100=total damage to plant; 0=no damage to plant), EPHHL (rate 500, evaluated after 15 d): 30 | damage to plant (100=total damage to plant; 0=no damage to plant), GLXMA (rate 130, evaluated after 15 d): 0 | damage to plant (100=total damage to plant; 0=no damage to plant), GLXMA (rate 250, evaluated after 15 d): 0 | damage to plant (100=total damage to plant; 0=no damage to plant), GLXMA (rate 500, evaluated after 15 d): 0 | damage to plant (100=total damage to plant; 0=no damage to plant), IPOHE (rate 130, evaluated after 15 d): 0 | damage to plant (100=total damage to plant; 0=no damage to plant), IPOHE (rate 250, evaluated after 15 d): 10 | damage to plant (100=total damage to plant; 0=no damage to plant), IPOHE (rate 500, evaluated after 15 d): 20 | damage to plant (100=total damage to plant; 0=no damage to plant), ORYSA (rate 130, evaluated after 15 d): 0 | damage to plant (100=total damage to plant; 0=no damage to plant), ORYSA (rate 250, evaluated after 15 d): 0 | damage to plant (100=total damage to plant; 0=no damage to plant), ORYSA (rate 500, evaluated after 15 d): 0 | damage to plant (100=total damage to plant; 0=no damage to plant), PANMI (rate 130, evaluated after 15 d): 0 | damage to plant (100=total damage to plant; 0=no damage to plant), PANMI (rate 250, evaluated after 15 d): 0 | damage to plant (100=total damage to plant; 0=no damage to plant), PANMI (rate 500, evaluated after 15 d): 0 | damage to plant (100=total damage to plant; 0=no damage to plant), SETFA (rate 130, evaluated after 15 d): 0 | damage to plant (100=total damage to plant; 0=no damage to plant), SETFA (rate 250, evaluated after 15 d): 20 | damage to plant (100=total damage to plant; 0=no damage to plant), SETFA (rate 500, evaluated after 15 d): 70 | damage to plant (100=total damage to plant; 0=no damage to plant), SORVU (rate 130, evaluated after 15 d): 0 | damage to plant (100=total damage to plant; 0=no damage to plant), SORVU (rate 250, evaluated after 15 d): 0 | damage to plant (100=total damage to plant; 0=no damage to plant), SORVU (rate 500, evaluated after 15 d): 0
